Like-named read-outs stand apart in the source and are kept apart here.
What was measured:
MCR-1 = target: T1, MCR-1 (Homo sapiens, UniProt Q01726); assay: Melanocortin receptor binding assay, competition with 125I-HP 467, HEK 293 cells expressing hMCR-1; conditions: for IC50: read-out: MC-1 IC50; for % Disp. MC-1 10 μM: displacement of 125I-HP 467 at 10 μM isoquinoline compound
T1 construct: expressed in transfected cells; host or cells: HEK 293
Procedure, shortened: (§1)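 Intact-cell competition binding, 2.5 hr at 37 °C, in PBS/10% calf serum/1 mM CaCl2; hMCR-4 cells at 4×10^3 per tube, hMCR-1 cells at 2×10^4 per tube. Filtration on BSA/CaCl2-soaked GF/B, cold 50 mM Tris pH 7.4 washes, scintillation count.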

MCR-4 = target: T2, MCR-4 (Homo sapiens, UniProt P32245); assay: Melanocortin receptor binding assay, competition with 125I-HP 467, HEK 293 cells expressing hMCR-4; conditions: for IC50: read-out: MC-4 IC50
T2 construct: expressed in transfected cells; host or cells: HEK 293
T2 sequence (P32245 whole entry): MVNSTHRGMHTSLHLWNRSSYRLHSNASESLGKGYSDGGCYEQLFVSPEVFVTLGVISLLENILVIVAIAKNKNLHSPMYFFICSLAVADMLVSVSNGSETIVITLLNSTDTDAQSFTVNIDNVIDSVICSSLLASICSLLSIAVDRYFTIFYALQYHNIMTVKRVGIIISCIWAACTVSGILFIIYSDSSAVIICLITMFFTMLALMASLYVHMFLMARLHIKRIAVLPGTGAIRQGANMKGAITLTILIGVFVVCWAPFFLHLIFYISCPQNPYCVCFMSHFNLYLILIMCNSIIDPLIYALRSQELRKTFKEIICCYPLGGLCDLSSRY
Procedure, shortened: as §1

[1] = inhibition of binding of 125I-HP 467, HEK 293 cells expressing MCR-1
[2] = inhibition of binding of 125I-HP 467, HEK 293 cells expressing MCR-4
[3] = inhibition of binding of 125I-HP 467, HEK 293 cells expressing MCR-1, TRG 2414 library
[4] = inhibition of binding of 125I-HP 467, HEK 293 cells expressing MCR-4, TRG 2414 library
[5] = TRG 2414 library, inhibition of binding of 125I-HP 467, HEK 293 cells expressing MCR-1
[6] = TRG 2414 library, inhibition of binding of 125I-HP 467, HEK 293 cells expressing MCR-4
[7] = competition with 125I-HP 467, HEK 293 cells expressing MCR-1
[8] = competition with 125I-HP 467, HEK 293 cells expressing MCR-4
[9] = TRG 2406 and TRG 2407 libraries, inhibition of binding of 125I-HP 467
[10] = TRG 2405 section, inhibition of binding of 125I-HP 467, HEK 293 cells expressing MCR-1
[11] = TRG 2405 section, inhibition of binding of 125I-HP 467, HEK 293 cells expressing MCR-4
[12] = TRG 2408 and TRG 2409 libraries, inhibition of 125I-HP 467 binding

T1 sequence (Q01726 whole entry): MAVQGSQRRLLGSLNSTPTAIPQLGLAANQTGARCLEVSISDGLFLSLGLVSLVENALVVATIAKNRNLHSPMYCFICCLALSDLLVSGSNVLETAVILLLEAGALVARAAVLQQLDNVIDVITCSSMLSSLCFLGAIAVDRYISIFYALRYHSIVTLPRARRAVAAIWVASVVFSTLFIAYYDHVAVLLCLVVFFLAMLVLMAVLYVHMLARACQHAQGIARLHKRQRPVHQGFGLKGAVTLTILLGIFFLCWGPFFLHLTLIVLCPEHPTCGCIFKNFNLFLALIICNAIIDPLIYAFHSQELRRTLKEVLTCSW

COc1ccc(CCNCC2c3ccccc3CN(CCCCC(CN)NCc3ccc(C)cc3)C2c2cc(C(F)(F)F)cc(C(F)(F)F)c2)cc1OC (mixture of isomers) [TRG 2421-17]
IC50 (MCR-1; [1]): 2060 nM | IC50 (MCR-4; [2]): 830 nM

NCC(N)CCCCN1Cc2ccccc2C(CNCc2ccccc2)C1c1cccc(Oc2ccccc2)c1 (centres unmarked) [TRG 2414-109]
IC50 (MCR-1; [3]): 3060 nM | IC50 (MCR-4; [4]): 910 nM

CCCCNc1ccc(C2C(CNC3CCCCC3)c3ccccc3CN2CCCC(CN)NCCc2ccc(OC)cc2)cc1 (centres unmarked) [TRG 2411-209]
IC50 (MCR-1; [1]): 350 nM | IC50 (MCR-4; [2]): 1330 nM

NCC(N)CCCCN1Cc2ccccc2C(CNCc2ccccc2C(F)(F)F)C1c1ccc(Oc2ccccc2)cc1 (centres unmarked) [TRG 2414-121]
IC50 (MCR-1; [3]): 8140 nM | IC50 (MCR-4; [4]): 27800 nM

COc1ccccc1CCNCC1c2ccccc2CN(CCCCC(N)CN)C1c1ccc(Cl)cc1Cl (centres unmarked) [Cmpd 241]
MC-1 IC50 (MCR-1; [5]): no fit | MC-4 IC50 (MCR-4; [6]): no fit

CCNC(CN)CCCCN1Cc2ccccc2C(CN)C1c1ccc(CC)cc1 (centres unmarked) [TRG 2415-19]
IC50 (MCR-1; [1]): 1460 nM | IC50 (MCR-4; [2]): 2040 nM

CCCCNc1ccc(C2C(CNCCc3ccccc3)c3ccccc3CN2CCCC(CN)NCCc2ccc(OC)cc2)cc1 (centres unmarked) [TRG 2411-195]
IC50 (MCR-1; [1]): 160 nM | IC50 (MCR-4; [2]): 1440 nM

CCNc1ccc(C2C(CNCCc3ccccc3)c3ccccc3CN2CCCC(CN)NCCc2ccccc2)cc1 (centres unmarked) [TRG 2411-155]
IC50 (MCR-1; [1]): 90 nM | IC50 (MCR-4; [2]): 720 nM

NCC(CCCN1Cc2ccccc2C(CNCCc2ccccc2)C1c1ccc(-c2ccccc2)cc1)NCc1ccccc1 (centres unmarked) [TRG 2411-126]
IC50 (MCR-1; [7]): 1320 nM | IC50 (MCR-4; [8]): 1490 nM

CNC(CN)CN1Cc2ccccc2C(CNCc2ccccc2O)C1c1cccc(Oc2ccccc2)c1 (centres unmarked) [TRG 2406-9]
IC50 (MCR-1; [9]): 3660 nM | IC50 (MCR-4; [9]): 2100 nM

CNC(CN)CCCCN1Cc2ccccc2C(CNCc2ccccc2O)C1c1cccc(Oc2ccc(Cl)c(Cl)c2)c1 (mixture of isomers) [TRG 2406-4]
IC50 (MCR-1; [9]): 1720 nM | IC50 (MCR-4; [9]): 3780 nM

COc1cccc(CNCC2c3ccccc3CN(CCCCC(CN)NCc3ccccc3)C2c2ccc(Cl)cc2Cl)c1 (centres unmarked) [TRG 2414-19]
IC50 (MCR-1; [3]): 3270 nM | IC50 (MCR-4; [4]): 7310 nM

CNC(CN)CN1Cc2ccccc2C(CNC2CCCCC2)C1c1cccc(O)c1 (centres unmarked) [TRG 2405-133]
IC50 (MCR-1; [10]): 20000 nM | % Disp. MC-1 10 μM (MCR-1; first of duplicate): 37.7% | % Disp. MC-1 10 μM (MCR-1; second of duplicate): 44.1% | IC50 (MCR-4; [11]): 12400 nM

CCCCNc1ccc(C2C(CNC3CCCCC3)c3ccccc3CN2CCCCC(CN)NCCCC)cc1 (centres unmarked) [TRG 2411-88]
IC50 (MCR-1; [7]): 240 nM | IC50 (MCR-4; [8]): 1500 nM

NCC(CCCCN1Cc2ccccc2C(CNC2CCCCC2)C1c1ccc(-c2ccccc2)cc1)NCc1ccccc1 (centres unmarked) [TRG 2411-22]
IC50 (MCR-1; [7]): 420 nM | IC50 (MCR-4; [8]): 1730 nM

NCC(CCCCN1Cc2ccccc2C(CNCCc2cccc(Cl)c2)C1c1ccccc1Br)NCCc1ccccc1 (centres unmarked) [Cmpd 214]
IC50 (MCR-1; [5]): 7380 nM | IC50 (MCR-4; [6]): 4760 nM

CCOc1ccc(CCNCC2c3ccccc3CN(CCCCC(CN)NCc3ccc(Br)cc3)C2c2cc(C(F)(F)F)cc(C(F)(F)F)c2)cc1 (centres unmarked) [TRG 2421-23]
IC50 (MCR-1; [1]): 7440 nM | IC50 (MCR-4; [2]): 8220 nM

NCC(CCCCN1Cc2ccccc2C(CNC2CCCCCC2)C1c1ccc(Oc2ccccc2)cc1)NCc1ccccc1 (centres unmarked) [TRG 2414-155]
IC50 (MCR-1; [3]): 2030 nM | IC50 (MCR-4; [4]): 8940 nM

COc1ccc(CNCC2c3ccccc3CN(CCCCC(CN)NCc3ccccc3)C2c2cccc(Oc3ccccc3)c2)cc1 (mixture of isomers) [TRG 2414-103]
IC50 (MCR-1; [3]): 8140 nM | IC50 (MCR-4; [4]): 7480 nM

CCCOc1ccc(C2C(CNCCc3cccc(Cl)c3)c3ccccc3CN2CCCCC(N)CN)cc1 (centres unmarked) [TRG 2414-173]
IC50 (MCR-1; [3]): 1960 nM | IC50 (MCR-4; [4]): 4220 nM

CCCCNc1ccc(C2C(CNC3CCCCC3)c3ccccc3CN2CCCCC(CN)NCc2ccc(OC)cc2)cc1 (centres unmarked) [TRG 2411-95]
IC50 (MCR-1; [7]): 110 nM | IC50 (MCR-4; [8]): 1030 nM

NCC(CCCCN1Cc2ccccc2C(CNC2CCCCC2)C1c1cc(C(F)(F)F)cc(C(F)(F)F)c1)NCc1ccccc1 (centres unmarked) [TRG 2414-79]
IC50 (MCR-1; [3]): 10400 nM | IC50 (MCR-4; [4]): 4990 nM

CCNc1ccc(C2C(CNCCc3ccccc3)c3ccccc3CN2CCCC(CN)NC)cc1 (centres unmarked) [TRG 2411-151]
IC50 (MCR-1; [1]): 90 nM | IC50 (MCR-4; [2]): 1780 nM

CCOc1ccc(CCNCC2c3ccccc3CN(CCCCC(CN)NCc3ccccc3)C2c2cccc(C(F)(F)F)c2)cc1 (centres unmarked) [TRG 2421-45]
IC50 (MCR-1; [1]): 980 nM | IC50 (MCR-4; [2]): 2730 nM

NCC(N)CCCCN1Cc2ccccc2C(CNC2CCCCCC2)C1c1cccc(Oc2ccccc2)c1 (centres unmarked) [TRG 2414-113]
IC50 (MCR-1; [3]): 2960 nM | IC50 (MCR-4; [4]): 1780 nM

CNC(CN)CCCCN1Cc2ccccc2C(CNC2CCCCC2)C1c1ccc(NCCC2CC3CCC2C3)cc1 (centres unmarked) [TRG 2409-22]
IC50 (MCR-1; [7]): 1530 nM | IC50 (MCR-4; [8]): 12300 nM

CC(C)Cc1ccc(C(C)CN[C@H](CN)CCCCN2Cc3ccccc3C(CNCc3ccccc3C(F)(F)F)C2c2cccc(Oc3ccccc3)c2)cc1 (some centres unmarked) [TRG 2414-84]
MC-1 IC50 (MCR-1; [3]): no fit | MC-4 IC50 (MCR-4; [4]): no fit

COc1ccc(CNCC2c3ccccc3CN(CCCCC(CN)NCc3ccccc3)C2c2ccccc2Br)cc1 (centres unmarked) [Cmpd 223]
IC50 (MCR-1; [5]): 10600 nM | IC50 (MCR-4; [6]): 8220 nM

NCCN1Cc2ccccc2C(CNC2CCCCC2)C1c1cc(C(F)(F)F)cc(C(F)(F)F)c1 (centres unmarked) [TRG 2405-28]
IC50 (MCR-1; [10]): 8750 nM | % Disp. MC-1 10 μM (MCR-1; first of duplicate): 52% | % Disp. MC-1 10 μM (MCR-1; second of duplicate): 52.5% | IC50 (MCR-4; [11]): 9240 nM

CCOc1ccc(C2C(CO)c3ccccc3CN2CCCC(CN)NCCC2CCCCC2)cc1 (centres unmarked) [TRG 2415-3]
IC50 (MCR-1; [1]): 1440 nM | IC50 (MCR-4; [2]): 2380 nM

CC(C)Cc1ccc(C(C)CNC(CN)CCCCN2Cc3ccccc3C(CNCCc3cccc(Cl)c3)C2c2ccc(Oc3ccccc3)cc2)cc1 (centres unmarked) [TRG 2414-136]
MC-1 IC50 (MCR-1; [3]): no fit | MC-4 IC50 (MCR-4; [4]): no fit

NC[C@H](N)CCCCN1Cc2ccccc2C(CNC2CCCCC2)C1c1ccc(Cl)cc1Cl (some centres unmarked) [TRG 2408-41]
IC50 (MCR-1; [12]): 1030 nM | IC50 (MCR-4; [12]): 3880 nM

NCC(CCCCN1Cc2ccccc2C(CNCc2ccccc2)C1c1cccc(Oc2ccccc2)c1)NCc1ccccc1 (centres unmarked) [TRG 2414-111]
IC50 (MCR-1; [3]): 7740 nM | IC50 (MCR-4; [4]): 13100 nM

COc1ccc(CNC(CN)CCCCN2Cc3ccccc3C(CNCCc3ccc(O)cc3)C2c2cc(C(F)(F)F)cc(C(F)(F)F)c2)cc1 (centres unmarked) [TRG 2421-9]
IC50 (MCR-1; [1]): 1500 nM | IC50 (MCR-4; [2]): 1750 nM

NCC(CCCCN1Cc2ccccc2C(CNCCc2cccc(Cl)c2)C1c1ccc(Cl)cc1Cl)NCCc1ccccc1 (centres unmarked) [TRG 2414-14]
IC50 (MCR-1; [3]): 3230 nM | IC50 (MCR-4; [4]): 2920 nM

CC(C)Cc1ccc(C(C)CNC(CN)CCCCN2Cc3ccccc3C(CNC3CCCCC3)C2c2cccc(Oc3ccccc3)c2)cc1 (centres unmarked) [TRG 2414-120]
IC50 (MCR-1; [3]): 25000 nM | IC50 (MCR-4; [4]): 58800 nM

CCCCNc1ccc(C2C(CNCCc3ccccc3)c3ccccc3CN2CCCC(CN)NCCc2ccccc2)cc1 (centres unmarked) [TRG 2411-193]
IC50 (MCR-1; [1]): 150 nM | IC50 (MCR-4; [2]): 1240 nM

CCNc1ccc(C2C(CNc3ccccc3)c3ccccc3CN2CCCCC(CN)NC)cc1 (centres unmarked) [TRG 2407-41]
IC50 (MCR-1; [9]): 5870 nM | IC50 (MCR-4; [9]): 17000 nM

NCC(N)CCCN1Cc2ccccc2C(CNC2CCCCC2)C1c1ccc(Cl)cc1Cl (centres unmarked) [TRG 2408-71]
IC50 (MCR-1; [12]): 1190 nM | IC50 (MCR-4; [12]): 3030 nM

CCCCNc1ccc(C2C(CO)c3ccccc3CN2CCCC(CN)NCCC2CCCCC2)cc1 (centres unmarked) [TRG 2415-1]
IC50 (MCR-1; [1]): 1930 nM | IC50 (MCR-4; [2]): 5040 nM

CCNc1ccc(C2C(CNCCc3ccccc3)c3ccccc3CN2CCCC(CN)NCCCCN(CC)CC)cc1 (centres unmarked) [TRG 2419-4]
IC50 (MCR-1; [1]): 58 nM | IC50 (MCR-4; [2]): 14400 nM
